Laboratory results reported in PubChem BioAssay (NCI).
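How tested: cells in 96-well plates exposed to compound for 48 hours at five concentrations. GI50 = concentration required for 50% inhibition of growth. TGI: total growth inhibition.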

How the values were obtained:
Experiment in all cases: DTP human tumour cell line panel, 48 h
RXF 393 renal = tested on: RXF 393 renal
HCT-15 colon = tested on: HCT-15 colon
COLO 205 colon = tested on: COLO 205 colon
IGROV1 ovarian = tested on: IGROV1 ovarian
HOP-92 NSCLC = tested on: HOP-92 NSCLC
OVCAR-4 ovarian = tested on: OVCAR-4 ovarian
SN12C renal = tested on: SN12C renal
SK-OV-3 ovarian = tested on: SK-OV-3 ovarian
RPMI-8226 leukemia = tested on: RPMI-8226 leukemia
HT29 colon = tested on: HT29 colon
LOX IMVI melanoma = tested on: LOX IMVI melanoma
HCT-116 colon = tested on: HCT-116 colon
SK-MEL-2 melanoma = tested on: SK-MEL-2 melanoma
SF-539 CNS = tested on: SF-539 CNS
T-47D breast = tested on: T-47D breast
SF-295 CNS = tested on: SF-295 CNS
DU-145 prostate = tested on: DU-145 prostate
MOLT-4 leukemia = tested on: MOLT-4 leukemia
A549 NSCLC = tested on: A549 NSCLC
HL-60(TB) leukemia = tested on: HL-60(TB) leukemia
ACHN renal = tested on: ACHN renal
HS 578T breast = tested on: HS 578T breast
SF-268 CNS = tested on: SF-268 CNS
NCI-H522 lung = tested on: NCI-H522 lung
SR leukemia = tested on: SR leukemia
786-0 renal = tested on: 786-0 renal
SK-MEL-28 melanoma = tested on: SK-MEL-28 melanoma
PC-3 prostate = tested on: PC-3 prostate
NCI-H226 lung = tested on: NCI-H226 lung
TK-10 renal = tested on: TK-10 renal
OVCAR-5 ovarian = tested on: OVCAR-5 ovarian
UO-31 renal = tested on: UO-31 renal
MALME-3M melanoma = tested on: MALME-3M melanoma
U251 CNS = tested on: U251 CNS
K-562 leukemia = tested on: K-562 leukemia
CAKI-1 renal = tested on: CAKI-1 renal
EKVX NSCLC = tested on: EKVX NSCLC
KM12 colon = tested on: KM12 colon
NCI-H460 lung = tested on: NCI-H460 lung
MCF7 breast = tested on: MCF7 breast
OVCAR-3 ovarian = tested on: OVCAR-3 ovarian
MDA-MB-435 = tested on: MDA-MB-435
CCRF-CEM leukemia = tested on: CCRF-CEM leukemia
HOP-62 NSCLC = tested on: HOP-62 NSCLC
SNB-75 CNS = tested on: SNB-75 CNS
UACC-62 melanoma = tested on: UACC-62 melanoma
NCI/ADR-RES ovarian = tested on: NCI/ADR-RES ovarian
SNB-19 CNS = tested on: SNB-19 CNS
BT-549 breast = tested on: BT-549 breast
OVCAR-8 ovarian = tested on: OVCAR-8 ovarian
SK-MEL-5 melanoma = tested on: SK-MEL-5 melanoma
UACC-257 melanoma = tested on: UACC-257 melanoma
NCI-H23 lung = tested on: NCI-H23 lung
M14 melanoma = tested on: M14 melanoma
MDA-MB-231 breast = tested on: MDA-MB-231 breast
HCC-2998 colon = tested on: HCC-2998 colon
A498 renal = tested on: A498 renal
SW-620 colon = tested on: SW-620 colon

Clc1ccc(CCC(Cn2ccnc2)Sc2c(Cl)cccc2Cl)cc1 (centres undefined)
GI50 (RXF 393 renal): 2.57 µM
TGI (RXF 393 renal): 13.8 µM
GI50 (HCT-15 colon): 3.54 µM
TGI (HCT-15 colon): 13.7 µM
GI50 (COLO 205 colon): 3.14 µM
TGI (COLO 205 colon): 11.1 µM
GI50 (IGROV1 ovarian): 4.45 µM
TGI (IGROV1 ovarian): 18.1 µM
GI50 (HOP-92 NSCLC): 1.79 µM
TGI (HOP-92 NSCLC): 7.23 µM
GI50 (OVCAR-4 ovarian): 3.58 µM
TGI (OVCAR-4 ovarian): 16.5 µM
GI50 (SN12C renal): 2.82 µM
TGI (SN12C renal): 14.9 µM
GI50 (SK-OV-3 ovarian): 10.9 µM
TGI (SK-OV-3 ovarian): 22.8 µM
GI50 (RPMI-8226 leukemia): 3.25 µM
TGI (RPMI-8226 leukemia): > 100 µM
GI50 (HT29 colon): 1.78 µM
TGI (HT29 colon): 3.77 µM
GI50 (LOX IMVI melanoma): 2.11 µM
TGI (LOX IMVI melanoma): 5.11 µM
GI50 (HCT-116 colon): 2.13 µM
TGI (HCT-116 colon): 5.3 µM
GI50 (SK-MEL-2 melanoma): 3.02 µM
TGI (SK-MEL-2 melanoma): 7.29 µM
GI50 (SF-539 CNS): 4.71 µM
TGI (SF-539 CNS): 17.8 µM
GI50 (T-47D breast): 2.25 µM
TGI (T-47D breast): 10.5 µM
GI50 (SF-295 CNS): 2.56 µM
TGI (SF-295 CNS): 11.9 µM
GI50 (DU-145 prostate): 5.05 µM
TGI (DU-145 prostate): 16.8 µM
GI50 (MOLT-4 leukemia): 2.89 µM
TGI (MOLT-4 leukemia): 8.21 µM
GI50 (A549 NSCLC): 3.5 µM
TGI (A549 NSCLC): 14.5 µM
GI50 (HL-60(TB) leukemia): 2.85 µM
TGI (HL-60(TB) leukemia): 5.72 µM
GI50 (ACHN renal): 4.32 µM
TGI (ACHN renal): 15.1 µM
GI50 (HS 578T breast): 3.28 µM
TGI (HS 578T breast): 19.5 µM
GI50 (SF-268 CNS): 4.36 µM
TGI (SF-268 CNS): 20.2 µM
GI50 (NCI-H522 lung): 2.37 µM
TGI (NCI-H522 lung): 7.5 µM
GI50 (SR leukemia): 3.64 µM
TGI (SR leukemia): 24 µM
GI50 (786-0 renal): 3.49 µM
TGI (786-0 renal): 12.4 µM
GI50 (SK-MEL-28 melanoma): 7.03 µM
TGI (SK-MEL-28 melanoma): 19.5 µM
GI50 (PC-3 prostate): 2.64 µM
TGI (PC-3 prostate): 12.6 µM
GI50 (NCI-H226 lung): 5.59 µM
TGI (NCI-H226 lung): 35.1 µM
GI50 (TK-10 renal): 3.52 µM
TGI (TK-10 renal): 11.9 µM
GI50 (OVCAR-5 ovarian): 6.56 µM
TGI (OVCAR-5 ovarian): 20.4 µM
GI50 (UO-31 renal): 3.07 µM
TGI (UO-31 renal): 13.8 µM
GI50 (MALME-3M melanoma): 2.92 µM
TGI (MALME-3M melanoma): 8.21 µM
GI50 (U251 CNS): 3.23 µM
TGI (U251 CNS): 14 µM
GI50 (K-562 leukemia): 3.28 µM
TGI (K-562 leukemia): 11.7 µM
GI50 (CAKI-1 renal): 2.6 µM
TGI (CAKI-1 renal): 10.5 µM
GI50 (EKVX NSCLC): 2.64 µM
TGI (EKVX NSCLC): 17 µM
GI50 (KM12 colon): 3.19 µM
TGI (KM12 colon): 11.2 µM
GI50 (NCI-H460 lung): 3.07 µM
TGI (NCI-H460 lung): 10.8 µM
GI50 (MCF7 breast): 3.43 µM
TGI (MCF7 breast): 13.2 µM
GI50 (OVCAR-3 ovarian): 3.34 µM
TGI (OVCAR-3 ovarian): 10.8 µM
GI50 (MDA-MB-435): 2.78 µM
TGI (MDA-MB-435): 10.3 µM
GI50 (CCRF-CEM leukemia): 3.4 µM
TGI (CCRF-CEM leukemia): 14.1 µM
GI50 (HOP-62 NSCLC): 6.03 µM
TGI (HOP-62 NSCLC): 19.4 µM
GI50 (SNB-75 CNS): 15.4 µM
TGI (SNB-75 CNS): 36.4 µM
GI50 (UACC-62 melanoma): 2.8 µM
TGI (UACC-62 melanoma): 12.5 µM
GI50 (NCI/ADR-RES ovarian): 3 µM
TGI (NCI/ADR-RES ovarian): 11.7 µM
GI50 (SNB-19 CNS): 5.07 µM
TGI (SNB-19 CNS): 48.7 µM
GI50 (BT-549 breast): 4.3 µM
TGI (BT-549 breast): 15.1 µM
GI50 (OVCAR-8 ovarian): 3.15 µM
TGI (OVCAR-8 ovarian): 14.3 µM
GI50 (SK-MEL-5 melanoma): 2.08 µM
TGI (SK-MEL-5 melanoma): 4.88 µM
GI50 (UACC-257 melanoma): 3.39 µM
TGI (UACC-257 melanoma): 13 µM
GI50 (NCI-H23 lung): 3.41 µM
TGI (NCI-H23 lung): 15.5 µM
GI50 (M14 melanoma): 4.29 µM
TGI (M14 melanoma): 14.7 µM
GI50 (MDA-MB-231 breast): 3.9 µM
TGI (MDA-MB-231 breast): 18.8 µM
GI50 (HCC-2998 colon): 2.85 µM
TGI (HCC-2998 colon): 11.8 µM
GI50 (A498 renal): 1.59 µM
TGI (A498 renal): 6.66 µM
GI50 (SW-620 colon): 3.43 µM
TGI (SW-620 colon): 13.9 µM

c1ccc(CSc2nc(N3CCCCC3)c3cn[nH]c3n2)cc1
TGI (RXF 393 renal): 35.4 µM
TGI (HCT-15 colon): > 100 µM
TGI (COLO 205 colon): 62.4 µM
TGI (IGROV1 ovarian): 41.8 µM
TGI (HOP-92 NSCLC): 72.8 µM
TGI (OVCAR-4 ovarian): > 100 µM
TGI (SN12C renal): 42 µM
TGI (SK-OV-3 ovarian): > 100 µM
TGI (RPMI-8226 leukemia): 72.8 µM
TGI (HT29 colon): > 100 µM
TGI (LOX IMVI melanoma): 49.1 µM
TGI (HCT-116 colon): 44.1 µM
TGI (SK-MEL-2 melanoma): 32.5 µM
TGI (SF-539 CNS): 34.9 µM
TGI (T-47D breast): > 100 µM
TGI (SF-295 CNS): 63.7 µM
TGI (DU-145 prostate): > 100 µM
TGI (MOLT-4 leukemia): > 100 µM
TGI (A549 NSCLC): > 100 µM
TGI (HL-60(TB) leukemia): > 100 µM
TGI (ACHN renal): 94.7 µM
TGI (HS 578T breast): 43.9 µM
TGI (SF-268 CNS): 61.3 µM
TGI (NCI-H522 lung): 36.4 µM
TGI (SR leukemia): > 100 µM
TGI (786-0 renal): 79.8 µM
TGI (SK-MEL-28 melanoma): 41.3 µM
TGI (PC-3 prostate): 51 µM
TGI (NCI-H226 lung): 44.9 µM
TGI (TK-10 renal): 70.2 µM
TGI (OVCAR-5 ovarian): > 100 µM
TGI (UO-31 renal): 42.8 µM
TGI (MALME-3M melanoma): 37.3 µM
TGI (U251 CNS): 40.7 µM
TGI (K-562 leukemia): > 100 µM
TGI (CAKI-1 renal): > 100 µM
TGI (EKVX NSCLC): 65.3 µM
TGI (KM12 colon): 35.4 µM
TGI (NCI-H460 lung): 64.5 µM
TGI (MCF7 breast): 72.4 µM
TGI (OVCAR-3 ovarian): 69.1 µM
TGI (MDA-MB-435): 47.9 µM
TGI (CCRF-CEM leukemia): > 100 µM
TGI (HOP-62 NSCLC): 43.3 µM
TGI (SNB-75 CNS): 46.8 µM
TGI (UACC-62 melanoma): 32 µM
TGI (NCI/ADR-RES ovarian): > 100 µM
TGI (SNB-19 CNS): 79 µM
TGI (BT-549 breast): 34.6 µM
TGI (OVCAR-8 ovarian): 74.3 µM
TGI (SK-MEL-5 melanoma): 31 µM
TGI (UACC-257 melanoma): 35.4 µM
TGI (NCI-H23 lung): 66.5 µM
TGI (M14 melanoma): 37 µM
TGI (MDA-MB-231 breast): 36.8 µM
TGI (HCC-2998 colon): 45 µM
TGI (A498 renal): 34.3 µM
TGI (SW-620 colon): 44.5 µM
